Results as given in patent publication US10251881B2, “Particulate materials” (priority 2002, dated 2019).
Where a name gives a salt, the structure may show the parent alone.

Experiments:
Assay type in all cases: physicochemical
[1] = Particle size of the powders (AEROSIZER, SYMPATEC); details: powder; for MMAD: AEROSIZER
Excerpt: Particle sizes may be measured for instance using (a) an AEROSIZER™ time-of-flight instrument (which gives an aerodynamic equivalent particle diameter, MMAD) or (b) a laser diffraction sensor such as the HELOS™ system available from SYMPATEC™ GmbH, Germany (which provides a geometric projection equivalent MMD). MMADs may also be assessed using a cascade impactor. Volume mean diameters may be obtained in both cases using commercially available software packages.

[2] = Flocculation volume of particulate drug suspended in propellant (HFA 134a or HFA 227ea)
Excerpt: Flocculation volume, sometimes referred to as “sedimentation volume”, can be measured by a conventional and relatively simple method. The substance under test, in particulate form, is suspended in the desired fluid vehicle at a suitable concentration. The mixture should be well agitated (typically, simply by shaking) to ensure a uniform dispersion of particles in the fluid at the start of measurement. Immediately after agitation ceases, timing begins. The mixture is left to stand, usually under ambient conditions, and the degree of settling or creaming of the solid observed over time. The flocculation volume of the mixture at a given point in time is the volume of fluid which is still occupied by the particulate dispersion, expressed as a percentage of the total fluid volume. A higher flocculation volume thus indicates less settling/creaming, which indicates improved performance. All references herein to flocculation volumes, unless otherwise stated, are to measurements made at 22° C. […] Measurements were taken at 22° C.

[3] = Particle size of the powders (AEROSIZER, SYMPATEC)
[4] = HFA 134a, 1% w/v, 22° C., after 10 minutes
[5] = HFA 134a, averaged over the first 2 minutes
[6] = HFA 227ea, averaged over the first 2 minutes
[7] = HFA 134a, averaged over the first minute
[8] = HFA 227ea, 1% w/v, 22° C., after 5 minutes
[9] = HFA 227ea, averaged over the first minute
[10] = HFA 227ea, 1% w/v, 22° C., after 10 minutes
[11] = HFA 227ea, 1% w/v, 22° C., after 1 minute

Compound	MMD ([1]; SYMPATEC) [μm]	flocculation volume [2, 4]	rate of change in flocculation volume (flocculation rate) [2, 5] [% per minute]	rate of change in flocculation volume (flocculation rate) [2, 6] [% per minute]	other results
CCCCCCCCCCCCCCCC(=O)OC1CCCn2c1nc(C)c(CCN1CCC(c3noc4cc(F)ccc34)CC1)c2=O (single isomer, unassigned) [risperidone-(9-hydroxy)-palmitate sample A]	2.95	100%	0	−2.5	
CCCCCCCCCCCCCCCC(=O)OC1CCCn2c1nc(C)c(CCN1CCC(c3noc4cc(F)ccc34)CC1)c2=O (single isomer, unassigned) [risperidone-(9-hydroxy)-palmitate sample B]	2.5	100%	0	−3	
CCCCCCCCCCCCCCCC(=O)OC1CCCn2c1nc(C)c(CCN1CCC(c3noc4cc(F)ccc34)CC1)c2=O (single isomer, unassigned) [risperidone-(9-hydroxy)-palmitate sample C]	3.5	greater than 80%	−1	−3	
OCc1cc(C(O)CNCCCCCCOCCCCc2ccccc2)ccc1O (single isomer, unassigned) [salmeterol xinafoate sample A, Salmeterol xinafoate]			−3	−11	MMAD [1]: 5.3 μm
OCc1cc(C(O)CNCCCCCCOCCCCc2ccccc2)ccc1O (single isomer, unassigned) [salmeterol xinafoate sample B, salmeterol xinafoate]		greater than 98%	−0.2	−19	MMAD [1]: 1.6 μm; flocculation volume ([2]; HFA 134a, after 24 hours standing): greater than 98%
OCc1cc(C(O)CNCCCCCCOCCCCc2ccccc2)ccc1O (single isomer, unassigned) [salmeterol xinafoate sample C, salmeterol xinafoate]		30%			MMAD [1]: 1.1 μm; flocculation volume ([2]; HFA 134a, 1% w/v, 22° C., after 3 minutes): below 40%; rate of change in flocculation volume (flocculation rate) [2, 7]: −38 % per minute; flocculation volume [2, 8]: below 35%; rate of change in flocculation volume (flocculation rate) [2, 9]: −53 % per minute
CN1C[C@H](C(=O)N[C@]2(C)O[C@@]3(O)[C@@H]4CCCN4C(=O)[C@H](Cc4ccccc4)N3C2=O)C[C@@H]2c3cccc4[nH]cc(c34)C[C@H]21 [DHE SEDS® product, dihydroergotamine mesylate]				0	MMAD [1]: 1.25 μm; flocculation volume [2, 10]: 100%; creaming ([2]; HFA 227ea, after 24 hours standing): no visible creaming
CN1C[C@H](C(=O)N[C@]2(C)O[C@@]3(O)[C@@H]4CCCN4C(=O)[C@H](Cc4ccccc4)N3C2=O)C[C@@H]2c3cccc4[nH]cc(c34)C[C@H]21 [DHE micronized sample, dihydroergotamine mesylate]					MMD ([1]; instrument not stated): 15.1 μm; flocculation volume [2, 11]: less than 20%; flocculation volume [2, 8]: less than 10%; rate of change in flocculation volume (flocculation rate) [2, 9]: −90 % per minute
CC(C)C[C@H]1C(=O)N2CCC[C@H]2[C@]2(O)O[C@](NC(=O)[C@@H]3C=C4c5cccc6[nH]c(Br)c(c56)C[C@H]4N(C)C3)(C(C)C)C(=O)N12 [bromocriptine mesylate sample B, Bromocriptine mesylate]		53%			flocculation volume [2, 10]: 95%
CN1C[C@H](C(=O)N[C@]2(C)O[C@@]3(O)[C@@H]4CCCN4C(=O)[C@H](Cc4ccccc4)N3C2=O)C[C@@H]2c3cccc4[nH]cc(c34)C[C@H]21 [crystalline DHE (Examples 9), dihydroergotamine mesylate]					bulk powder density [3]: 0.14 g/mL; VMD ([1]; SYMPATEC): 2.8 μm
CCC(=O)O[C@]1(C(=O)SCF)[C@H](C)C[C@H]2[C@@H]3C[C@H](F)C4=CC(=O)C=C[C@]4(C)[C@@]3(F)[C@@H](O)C[C@@]21C [fluticasone propionate sample A, fluticasone propionate]	2.3	about 50%	−20		
CCC(=O)O[C@]1(C(=O)SCF)[C@H](C)C[C@H]2[C@@H]3C[C@H](F)C4=CC(=O)C=C[C@]4(C)[C@@]3(F)[C@@H](O)C[C@@]21C [fluticasone propionate sample B, fluticasone propionate]	5.6	greater than 90%	−1	−0.5	
CCC(=O)O[C@]1(C(=O)SCF)[C@H](C)C[C@H]2[C@@H]3C[C@H](F)C4=CC(=O)C=C[C@]4(C)[C@@]3(F)[C@@H](O)C[C@@]21C [fluticasone propionate sample C, fluticasone propionate]	2.3			0	
CCC(=O)O[C@]1(C(=O)SCF)[C@H](C)C[C@H]2[C@@H]3C[C@H](F)C4=CC(=O)C=C[C@]4(C)[C@@]3(F)[C@@H](O)C[C@@]21C [fluticasone propionate sample D, fluticasone propionate]		below 30%			MMD ([1]; instrument not stated): 2.0 μm; rate of change in flocculation volume (flocculation rate) [2, 7]: −68 % per minute; flocculation volume ([2]; HFA 227ea, 1% w/v, 22° C., after 3 minutes): less than 30%; rate of change in flocculation volume (flocculation rate) [2, 9]: −40 % per minute
CCCCCCCCCCCCCCCC(=O)OC1CCCn2c1nc(C)c(CCN1CCC(c3noc4cc(F)ccc34)CC1)c2=O (centres unmarked) [risperidone-(9-hydroxy)-palmitate]					MMD ([1]; instrument not stated): 8.1 μm; flocculation volume ([2]; HFA 134a, 1% w/v, 22° C., after 1 minute): less than 20%; rate of change in flocculation volume (flocculation rate) [2, 7]: −152 % per minute; flocculation volume [2, 11]: less than 20%; rate of change in flocculation volume (flocculation rate) [2, 9]: −117 % per minute
CC(C)(C)NCC(O)c1ccc(O)c(CO)c1 (centres unmarked) [salbutamol micronized sample, salbutamol]					MMD ([1]; instrument not stated): 14.5 μm; flocculation volume ([2]; HFA 134a, 1% w/v, 22° C., after 2 minutes): less than 20%; rate of change in flocculation volume (flocculation rate) [2, 7]: −84 % per minute; flocculation volume ([2]; HFA 227ea, 1% w/v, 22° C., after 2 minutes): less than 20%; rate of change in flocculation volume (flocculation rate) [2, 9]: −55 % per minute
Salbutamol sulphate [salbutamol sulphate SEDS® product]	3.95	greater than 70%	−10	−5	flocculation volume ([2]; HFA 227ea, 1% w/v, 22° C., after 8 minutes): greater than 70%; flocculation volume [2, 10]: greater than 60%
